According to patent US8987449B2, “Medicine for treating ischemic brain injury and its sequelae, and preparation method thereof” (Haimin Lei, priority 2011, dated 2015):

Tests used:
[1] = test system: rat primary cortical neurons; assay: Proliferation of primary neuronal cells by MTT and morphology observation; type: cell-based; settings: for MTT(A540), 24 h after the administration: normal neurons, control 0.7567 ± 0.1109
Experimental: SD pregnant rats: pregnant for 16-18 d, certificate number: SCXK (Jing) 2006-0009, provided by BeiJing Vital River Laboratories.
LQC-T4 (prepared by the method of example 5), the purity was ≧98%, determined by high performance liquid chromatography (HPLC), which met the requirement of the experiment. The powder was carefully sealed and preserved at 4° C. The prepared LQC-T4 was dissolved using dimethyl sulfoxide and made into […] storing liquid for use.
Referring to the document [HongQingtao, TangYipeng, Neurons of cerebral cortex of newborn rats in in vitro primary culture, Chinese Journal of Neuroanatomy, 1994, 10(3):259-262], the pregnant 16-18 d SD rat was executed by dislocation. The fetal rat was taken out in an aseptic environment, the meninges and blood steak were stripped, the cortex was separated and cut into 1 mm^3 tissue block (all carried out on ice). The tissue block was digested at 37[…] with 0.1% pancreatic enzyme-0.02% EDTA for 20 min. Digesting was stopped using DMEM containing fetal calf serum and the number of the cells was adjusted to 5×10^5 cells ml^−1. The resultant cells were inoculated into a 96 well plate treated by 0.001% polylysine and the plate was put in a 37° C. 5% CO2 incubation box to be cultured. The cultivation liquid was changed (totally) after 48 h and add adenine arabinoside was added (final concentration is 5 μM) to inhibit the excessive proliferation of non-neurons. The cultivation liquid was changed after 48 h with fresh cultivation liquid and culture was continued. And the cultivation liquid was changed every 3 days afterward.
The cultivation liquid was sucked away on the eighth day of neuron culture. DMEM culture-medium containing 0.15% DMSO was added to the blank group, while 60 μM, 30 μM, 15 μM LQC-T4, 60 μM tetramethylpyrazine and 60 μM vanillic acid were respectively added to the administration group. Ten parallel wells were set as a group. And they were put into a 37° C., 5% CO2 incubation box to continue culturing for 24 h.
5 mg/ml MTT 20 μl was added to each well at the time of 4 h before the experiment ended and the cultivation liquid was sucked away. DMSO 200 μl was added to each well. When the purple particles were completely dissolved, the enzyme-linked immune assay was used to measure the optical density at 540 nm.
The SAS 8.2 statistical software was used to carry out the one-way ANOVA variance analysis and the difference among the groups were compared by t-test.

[2] = test system: rat cortex neurons after cerebral ischemia; assay: Brain histopathologic morphology after cerebral ischemia (HE staining of cortex); type: in vivo; settings: MCAO rats, compared with model group
Experimental: The same as effect example 4
10% chloral hydrate (0.35 g/kg) was injected into the abdominal cavity of a rat to anesthetize thereof. The thoracic cavity was cut to expose the heart fully. It was intubated through left ventricle. Firstly, it was washed with 37[…] saline solution 300 ml and perfused with pre-cooled 4% paraformaldehyde phosphate buffer solution (pH 7.2). When the rat was adequately fixed and the body was stiff, the head was cut and the brain was taken rapidly. And the brain was dipped into 4% paraformaldehyde solution and fixed for 24 h. Next, it was put into tissue vacuum hydroextractor, was dehydrated with gradient ethanol, made transparent with xylene, and imbedded into paraffin. 3-5 examples were taken for each group. And then 3 mm-4 mm tissue block from chiasma opticum towards caudal end at coronal position was taken, wherein the thickness of brain slice was 3 μm.
The rat cortex damage after cerebral ischemia and the effect of the medicine were observed through HE staining.

[3] = test system: ICR white mice; assay: Acute toxic experiment of mice by oral administration; type: in vivo, mouse; design: key to Animal reaction in 14 days after the administration: appearance / Animal reaction in 14 days after the administration: behavior / Animal reaction in 14 days after the administration: hair / Animal reaction in 14 days after the administration: respiration / Animal reaction in 14 days after the administration: posture / Animal reaction in 14 days after the administration: reaction: ✓ means normal; settings: for Animal reaction in 14 days after the administration: death: 10 animals; for Animal reaction in 14 days after the administration: death / Animal reaction in 14 days after the administration: appearance / Animal reaction in 14 days after the administration: behavior / Animal reaction in 14 days after the administration: hair / Animal reaction in 14 days after the administration: posture / Animal reaction in 14 days after the administration: reaction / Animal reaction in 14 days after the administration: respiration: oral 3 x 1800 mg/kg (5400 mg/kg) in one day
Experimental: ICR white mice (half female and half male, 18-22 g, experiment animal certificate No.: SCXK (Jing) 2006-0009);
LQC-T4 (white powder (self made); and LQC-T4 4500 mg was dissolved into 0.5% sodium carboxymethyl cellulose 100 ml and then suspended by supersonic wave. The suspension was used in situ).
The qualified animals were quarantined and weighed before the administration. The animals were divided into groups randomly by weight. The intragastric administration tool was used for mice to carry out the intragastric administration. The mice were fasted but not water-deprived (continuously for 14 h) overnight before being administrated. The mice were administrated at 9:00 AM for the first time (1800 mg/kg) on the present administration day and observed continuously for 1 h. The mice were administrated for the second time (1800 mg/kg) at an interval of 6 h since the first administration and observed continuously for 1 h. The mice were administrated for the third time (1800 mg/kg) at an interval of 6 h since the second administration, observed continuously for 1 h and then the mice were fed.

[4] = test system: VEGF; assay: VEGF expression in the cortex infarction zone (immunohistochemistry SP two-step method); type: in vivo, rat; settings: MCAO rats, vs model group

COc1cc(C(=O)OCc2nc(C)c(C)nc2C)ccc1OCc1nc(C)c(C)nc1C [LQC-T4, (3,5,6-trimethylpyrazine-2-yl)methyl 3-methoxy-4-((3,5,6-trimethylpyrazine-2-yl)methoxy) benzoate]
MTT(A540), 24 h after the administration ([1]; 15 μM): 0.9175 ± 0.2300
MTT(A540), 24 h after the administration ([1]; 30 μM): 0.9114 ± 0.1599
MTT(A540), 24 h after the administration ([1]; 60 μM): 0.8106 ± 0.2415
promoting effect on the growth of normal neurons ([1]; 24 h after the administration, P>0.05, result in words): greater than that of the tetramethylpyrazine group and the vanillic acid group
morphology observation of primary neuronal cells ([1]; phase contrast microscope, vs normal group): more prosperous in growth and their protrusions formed a network
remaining of the complete neuron of the rat cortex after cerebral ischemia (HE staining) ([2]; 60 mg/kg): a larger amount of neurons which were distinct and complete in structure
remaining of the complete neuron of the rat cortex after cerebral ischemia (HE staining) ([2]; 120 mg/kg): a larger amount of neurons which were distinct and complete in structure
Animal reaction in 14 days after the administration: death ([3]; mice ♀): 0
Animal reaction in 14 days after the administration: appearance ([3]; mice ♀): ✓
Animal reaction in 14 days after the administration: behavior ([3]; mice ♀): ✓
Animal reaction in 14 days after the administration: hair ([3]; mice ♀): ✓
Animal reaction in 14 days after the administration: posture ([3]; mice ♀): ✓
Animal reaction in 14 days after the administration: reaction ([3]; mice ♀): ✓
Animal reaction in 14 days after the administration: respiration ([3]; mice ♀): ✓
Animal reaction in 14 days after the administration: death ([3]; mice ♂): 0
Animal reaction in 14 days after the administration: appearance ([3]; mice ♂): ✓
Animal reaction in 14 days after the administration: behavior ([3]; mice ♂): ✓
Animal reaction in 14 days after the administration: hair ([3]; mice ♂): ✓
Animal reaction in 14 days after the administration: posture ([3]; mice ♂): ✓
Animal reaction in 14 days after the administration: reaction ([3]; mice ♂): ✓
Animal reaction in 14 days after the administration: respiration ([3]; mice ♂): ✓
death in 12 h after the administration ([3]; mice, oral 3 x 1800 mg/kg): No death was observed
toxic reaction at the maximum dosage ([3]; mice, oral, maximum dosage of 5400 mg/kg, observed continuously for 14 days): No toxic reaction was observed
VEGF expression in the rat cerebral infarction zone ([4]; 60 mg/kg small dosage group): more than that of the model group
VEGF expression in the rat cerebral infarction zone ([4]; 120 mg/kg large dosage group): more than that of the model group

Cc1nc(C)c(C)nc1C [TMP, tetramethylpyrazine, reference compound]
MTT(A540), 24 h after the administration ([1]; 60 μM): 0.8710 ± 0.1350
remaining of the complete neuron of the rat cortex after cerebral ischemia (HE staining) ([2]; TMP group): a lower level of damage compared with the model group
VEGF expression in the rat cerebral infarction zone ([4]; TMP group): more than that of the model group
